How the values were obtained:
SMO receptor = biological target: T1, SMO receptor (UniProt P56726); test: Displacement assay with Bodipy-cyclopamine in HEK293 cells transfected with SMO; conditions: BC 5 nM, 2 h at 37° C., read-out: IC50 of blocking Bodipy-cyclopamine (BC) binding to SMO
T1 construct: fused on or other part: Possibly a C-terminal Myc3 tag, if the construct is Smo-Myc3 of Chen et al. 2002
Procedure: (A) HEK293 cells were transiently transfected with pcDNA-SMO vector and incubated with Bodipy-cyclopamine (BC 5 nM) alone (control) or in the presence of increasing concentrations of KAAD (Cyclopamine-KAAD, Smoothened antagonist) or increasing concentrations of Glabrescione B, as indicated. Bodipy-cyclopamine binding (BC binding) (green) is visualized using fluorescence microscopy in a representative field. (B) The concentration-response curve for Glabrescione B was obtained by quantification of the Bodipy-cyclopamine fluorescence in three photographs for each coverslip. The values are expressed as a percentage of the fluorescence detected in control HEK293 cells incubated with Bodipy-cyclopamine alone. The data shown are the means of triplicates derived from a representative experiment of three. Error bars indicate SD (standard deviation). […]
To investigate the binding properties of Glabrescione B to SMO receptor, a competition assay was carried out. In this experiment it was analyzed whether Glabrescione B could compete with Bodipy-cyclopamine (BC; 5 nM USBiological, cat. # B2527), a fluorescent derivative of cyclopamine, which is known to interact with the SMO receptor at the level of its heptahelical bundle. […] Cells were analyzed with a Carl Zeiss microscope (Axio Observer ZI). […] Bodipy-cyclopamine (green) and DAPI (blue) signals were analyzed in 3-4 representative fields for coverslips.

Gli1 = biological target: T2, Gli1 (Homo sapiens, UniProt P08151); test: Gli1-mediated transcription luciferase assay in HEK293 cells transiently expressing Gli1; type: cell-based; conditions: 24 h
T2 construct: expressed in transfected cells; host or cells: HEK293
T2 sequence (P08151 1-1106): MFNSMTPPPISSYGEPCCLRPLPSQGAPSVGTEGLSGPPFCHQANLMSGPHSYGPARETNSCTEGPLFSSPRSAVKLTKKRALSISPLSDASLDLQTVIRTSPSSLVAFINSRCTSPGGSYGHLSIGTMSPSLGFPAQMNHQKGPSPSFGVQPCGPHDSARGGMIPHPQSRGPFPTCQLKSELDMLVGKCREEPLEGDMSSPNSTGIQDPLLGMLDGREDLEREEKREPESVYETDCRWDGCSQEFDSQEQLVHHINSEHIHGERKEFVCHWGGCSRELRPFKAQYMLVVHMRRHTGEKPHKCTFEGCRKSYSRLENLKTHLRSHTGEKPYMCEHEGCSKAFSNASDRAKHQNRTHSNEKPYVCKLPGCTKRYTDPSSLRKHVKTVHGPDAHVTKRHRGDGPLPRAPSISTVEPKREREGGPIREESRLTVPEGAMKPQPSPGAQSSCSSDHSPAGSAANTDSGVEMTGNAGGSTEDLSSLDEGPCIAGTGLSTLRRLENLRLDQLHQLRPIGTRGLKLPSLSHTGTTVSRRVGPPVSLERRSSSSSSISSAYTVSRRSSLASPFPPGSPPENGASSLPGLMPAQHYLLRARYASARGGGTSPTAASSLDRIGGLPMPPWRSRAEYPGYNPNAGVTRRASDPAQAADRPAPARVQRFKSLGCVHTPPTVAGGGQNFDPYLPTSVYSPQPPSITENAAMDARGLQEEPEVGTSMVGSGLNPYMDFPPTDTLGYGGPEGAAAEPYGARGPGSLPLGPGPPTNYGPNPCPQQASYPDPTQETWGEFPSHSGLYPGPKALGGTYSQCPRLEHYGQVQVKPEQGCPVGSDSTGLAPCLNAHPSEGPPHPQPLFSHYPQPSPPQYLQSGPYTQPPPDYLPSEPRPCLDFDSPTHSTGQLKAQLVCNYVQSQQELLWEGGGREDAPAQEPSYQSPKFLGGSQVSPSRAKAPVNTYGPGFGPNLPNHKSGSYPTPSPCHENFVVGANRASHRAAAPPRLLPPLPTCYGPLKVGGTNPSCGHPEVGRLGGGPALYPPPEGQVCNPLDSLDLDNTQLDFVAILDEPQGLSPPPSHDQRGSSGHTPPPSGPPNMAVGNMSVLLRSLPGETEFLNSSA
Procedure: FIG. 7. Inhibition of Gli1-induced transcription in transfected HEK293 cells. HEK293 cells were transfected with 12×GliBS-Luc and pRL-TK Renilla (normalization control) plus control (empty vector) or Gli1 vector and treated with Glabrescione B or GANT61 (20 μM) or vehicle only (DMSO, dimethyl sulfoxide 0.5%—Gli1 bar in the graph) for 24 h and luciferase activity tested. Shown is the mean of three independent experiments. Error bars indicate SD.
Efficacy of Glabrescione B to directly target Gli1 protein, the final effector of Hh pathway, was also tested. […] GANT61, the only small-molecule described to inhibit Gli1 function (Lauth et al., PNAS 104: 8455-8460), was included as positive control.
To investigate the ability of Glabrescione B to block downstream Hh signaling by targeting Gli1 protein functions, the inventors performed a luciferase assay in HEK293 cells transiently expressing Gli1. The cells were seeded in 24-multiwell plates and the day after transfected with Gli1 expression vector together with the reporter plasmids 12×GliBS-Luc and pRL-TK Renilla reniformis (Kogerman P et al, 1999; Everett L et al, 1999). […] After 24 h of treatment cells were lysed and analyzed by using the Dual Luciferase kit according to manufacturer's instructions (Dual-Luciferase® Reporter assay system; Promega, cat. # E1980). […]

[1] = system: cerebellar granule progenitor cells (GCPs); test: BrdU incorporation in Shh-treated cerebellar granule cell progenitors; type: cell-based, mouse; conditions: Shh 3 μg/ml, 48 h
Procedure: FIG. 10. Cerebellar granule progenitor cells (GCPs) were treated with Shh (Recombinant mouse Sonic Hedgehog, amino-terminal peptide, 3 μg/ml) and with different concentrations of Glabrescione B, as indicated, for 48 h. Inhibition of cell proliferation was measured as percentage of BrdU incorporation in comparison to DMSO (0.5%, vehicle) treated sample.
A biological assay was performed in cerebellar neural progenitors cells obtained from 4-days-old mice, when they are actively proliferating under Sonic Hedgehog (Shh) stimulus. As expected, treatment of these cells with Shh increased the proliferation rate, as evaluated by BrdU-incorporation assay. […] To further evaluate the antiproliferative effect of Glabrescione B, human MB cell lines D283 were treated with Glabrescione B at different concentrations. […] The biomolecule was active, as shown by the growth rate inhibition (70-95%).
Another experiment to assess whether Glabrescione B also regulates Hh pathway in a physiological context was carried out in cerebellar granule cells precursors (GCPs) isolated from 4-days-old mice according to established protocols (Wechsler-Reya and Scott, 1999). Briefly, cerebella were removed aseptically, cut into small pieces, and incubated at room temperature for 15 min in digestion buffer [Dulbecco's PBS (Invitrogen, Gaithersburg, Md.) with 0.1% trypsin, 0.2% EDTA, and 100 μg/ml DNase]. […]

In the case of `COc1cc(OC)c2c(=O)c(-c3ccc(OCC=C(C)C)c(OCC=C(C)C)c3)coc2c1` [Glabrescione B, 3-(3′,4′-bis(3-methylbut-2-enyloxy)phenyl)-5,7-dimethoxy-4H-chromen-4-one], the IC50 (SMO receptor) is reported as 1 µM, the IC50 (Gli1; 12×GliBS-Luc reporter) is reported as roughly 15 µM and the “Gli1-induced transcription” value (Gli1; GANT61 20 μM as positive control) is reported as “capable of interfering with Gli1-induced transcription in a dose-dependent manner”. The “Shh-induced proliferation (BrdU incorporation)” value [1] was “antagonized this effect”.

From patent US10093642B2, “Multitarget hedgehog pathway inhibitors and uses thereof” (UNIVERSITA' DEGLI STUDI DI SIENA, priority 2013, dated 2018)
